# According to US7863499B2, “Model of infantile spasm syndrome” (Albert Einstein College of Medicine of Yeshiva University, priority 2007, dated 2011):
# Test system: rat pups
# Test: Induction of spasm-like seizures in rat pups (video monitoring)
# Format: in vivo
# Details: PCPA only, five pups
# Description: […] The pups were injected with DOX i.c.v. and LPS intracerebrally in the right centroparietal cortex at P3; PCPA was administered i.p. at P5. […] There were no sex differences and the data were combined.
# Behavioral seizures and spasm-like episodes. […] Seven pups had recurrent seizures resembling spasms. Spasms were first observed at P7 in 60% of the pups. […] The spasms were characterized by the abrupt onset of flexion of the trunk with extension of the limbs at the height of the spasm (the sequence is shown in FIG. 2). In two pups, extension spasms were sometimes observed. The spasms lasted from 1 to 5 seconds.
# Anesthesia. Rat pups were anesthetized with 2% isoflurane in 100% O2 continuously delivered by a small facemask, custom-fitted to the stereotaxic frame.
# Injections of DOX and LPS. Both male and female rats were used. At P3, stereotaxic injections of DOX and LPS were performed using a 25 μL Hamilton syringe. DOX was injected into the right ventricle (AP=−1.0, ML=1.1, DV=−3.3, reference to bregma) and LPS into the right cerebral hemisphere (AP=−1.0, ML=1.0, DV=2.0, reference to bregma). The injection volume is 5 μl for DOX and 7 μl for LPS. The pups were allowed to recover before returning to the dam.
# Titration of doses of agents used to induce spasms. […]
compound,measurement,value
"N[C@@H](Cc1ccc(Cl)cc1)C(=O)O (racemic) [PCPA, p-chlorophenylalanine]",development of spasms,none of those pups developed spasms
